Legend:
5HT-Transporter = target: T1, 5HT-Transporter (Homo sapiens, UniProt P31645); experiment: Binding experiment for the 5HT-transporter ([3H]paroxetine, human platelet membranes); conditions: [3H]paroxetine 0.5 nM, read-out: h-5HTT pIC50 (converted)
T1 construct: Human platelet membranes (Oceanix Biosciences Corporation, Hanover, Md., USA) were thawed; tissue Oceanix Biosciences Corporation; host or cells: human platelet membranes

hα2A receptor = target: T2, hα2A receptor (Homo sapiens, UniProt P08913); experiment: Radioligand binding experiment for hα2A receptor ([3H]-raulwolscine, CHO cell membranes); conditions: [3H]raulwolscine 1 nM, membranes of CHO cells transfected with human α2A receptor; read-out: h-α2A pIC50 (converted)
T2 construct: expressed in transfected cells
T2 sequence (P08913 1-465): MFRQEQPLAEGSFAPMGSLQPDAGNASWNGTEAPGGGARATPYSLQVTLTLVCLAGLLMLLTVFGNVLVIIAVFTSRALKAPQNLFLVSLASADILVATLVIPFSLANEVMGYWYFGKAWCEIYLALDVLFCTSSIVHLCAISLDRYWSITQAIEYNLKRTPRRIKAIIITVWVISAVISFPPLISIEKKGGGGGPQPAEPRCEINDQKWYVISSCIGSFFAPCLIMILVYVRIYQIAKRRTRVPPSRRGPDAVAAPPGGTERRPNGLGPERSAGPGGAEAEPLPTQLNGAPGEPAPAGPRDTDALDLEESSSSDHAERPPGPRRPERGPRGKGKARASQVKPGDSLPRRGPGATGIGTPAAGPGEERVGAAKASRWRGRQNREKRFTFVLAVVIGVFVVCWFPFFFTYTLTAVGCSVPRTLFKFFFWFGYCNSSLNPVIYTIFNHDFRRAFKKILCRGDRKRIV

hα2C receptor = target: T3, hα2C receptor (Homo sapiens, UniProt P18825); experiment: Radioligand binding experiment for α2C-adrenoceptor ([3H]-raulwolscine, CHO cell membranes); conditions: [3H]raulwolscine 1 nM, membranes of CHO cells transfected with human α2C receptor; read-out: h-α2C pIC50 (converted)
T3 construct: expressed in transfected cells
T3 sequence (P18825 1-462): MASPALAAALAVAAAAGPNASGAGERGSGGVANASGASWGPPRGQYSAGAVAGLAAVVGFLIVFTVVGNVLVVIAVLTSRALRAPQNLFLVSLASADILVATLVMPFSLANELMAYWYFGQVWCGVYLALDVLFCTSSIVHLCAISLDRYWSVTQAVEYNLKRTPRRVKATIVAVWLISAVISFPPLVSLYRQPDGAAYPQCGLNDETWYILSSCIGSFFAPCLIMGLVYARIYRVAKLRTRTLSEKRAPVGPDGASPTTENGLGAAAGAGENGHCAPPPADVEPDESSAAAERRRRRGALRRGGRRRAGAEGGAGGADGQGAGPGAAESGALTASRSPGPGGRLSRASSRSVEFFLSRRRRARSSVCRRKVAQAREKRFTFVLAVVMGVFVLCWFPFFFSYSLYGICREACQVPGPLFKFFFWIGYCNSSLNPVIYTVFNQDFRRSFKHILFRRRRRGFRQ

T1 sequence (P31645 whole entry): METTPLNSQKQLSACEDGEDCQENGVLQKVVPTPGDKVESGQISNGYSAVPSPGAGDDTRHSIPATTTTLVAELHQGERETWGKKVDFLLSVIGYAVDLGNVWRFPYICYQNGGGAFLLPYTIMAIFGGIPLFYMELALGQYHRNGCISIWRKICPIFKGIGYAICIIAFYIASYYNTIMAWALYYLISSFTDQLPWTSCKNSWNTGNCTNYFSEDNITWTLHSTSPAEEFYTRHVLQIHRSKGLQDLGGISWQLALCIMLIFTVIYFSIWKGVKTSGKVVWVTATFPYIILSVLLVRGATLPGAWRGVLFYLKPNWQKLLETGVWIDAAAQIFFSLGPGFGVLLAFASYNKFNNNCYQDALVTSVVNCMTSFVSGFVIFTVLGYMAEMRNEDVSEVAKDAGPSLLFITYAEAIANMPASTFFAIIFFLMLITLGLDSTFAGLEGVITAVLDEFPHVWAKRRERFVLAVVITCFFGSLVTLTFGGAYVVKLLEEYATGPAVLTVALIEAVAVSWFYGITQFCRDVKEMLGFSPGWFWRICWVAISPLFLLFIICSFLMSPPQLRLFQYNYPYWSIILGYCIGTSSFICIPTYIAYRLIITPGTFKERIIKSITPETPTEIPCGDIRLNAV

SMILES | IC50 (5HT-Transporter) [nM] | IC50 (hα2A receptor) [nM] | IC50 (hα2C receptor) [nM]
O=c1c(NC2CCN(CCOc3ccccc3)CC2)nccn1Cc1ccc(Br)cc1 [Compound 4-3] | 794 | 100 | 20
O=c1c(NC2CCN(CCOc3ccccc3)CC2)nccn1CCc1ccccc1 [Compound 4-4] | 6310 | 158 | 15.8
O=C(Cn1ccnc(NC2CCN(CCOc3ccccc3)CC2)c1=O)c1ccccc1 [Compound 4-6] | 5010 | 39.8 | 10
O=c1c(NC2CCN(CCOc3ccccc3)CC2)nccn1Cc1ccc2ccccc2c1 [Compound 4-7] | 794 | 79.4 | 20
O=c1[nH]ccnc1NC1CCN(CCOc2ccccc2)CC1 [Compound 5-1] | > 10000 | 398 | 39.8
CCCn1ccnc(NC2CCN(CCOc3ccccc3)CC2)c1=O [Compound 5-2] | > 10000 | 100 | 15.8
O=c1c(NC2CCN(CCOc3ccccc3)CC2)nccn1CC1CCCCC1 [Compound 5-3] | 1000 | 251 | 25.1
CC(=O)Cn1ccnc(NC2CCN(CCOc3ccccc3)CC2)c1=O [Compound 5-4] | > 10000 | 126 | 31.6
CC(C)(C)C(=O)Cn1ccnc(NC2CCN(CCOc3ccccc3)CC2)c1=O [Compound 5-5] | > 10000 | 158 | 7.94
O=c1c(NC2CCN(CCOc3ccccc3)CC2)nccn1CC1CCCCO1 (stereo not drawn) [Compound 6-1] | > 10000 | 501 | 39.8
O=c1c(NC2CCN(CCOc3ccccc3)CC2)nccn1Cc1ccncc1 [Compound 6-2] | > 10000 | 398 | 39.8
O=c1c(NC2CCN(CCOc3ccccc3)CC2)nccn1Cc1ccc2ccccc2n1 [Compound 6-3] | 2510 | 200 | 7.94
NCc1ccc(Cn2ccnc(N3CCN(CCOc4ccc(F)cc4)CC3)c2=O)cc1 [Compound 7-1] | 1260 | 158 | 63.1
CN(C)C(=O)Cn1ccnc(N2CCN(CCOc3ccc(F)cc3)CC2)c1=O [Compound 7-2] | > 10000 | 316 | 501
CC(C)(C)OC(=O)NCc1ccc(Cn2ccnc(N3CCN(CCOc4ccc(F)cc4)CC3)c2=O)cc1 [Compound 7-3] | 2000 | 398 | 251
O=c1c(N2CCN(CCOc3ccc(F)cc3)CC2)nccn1CCN1CCCCC1 [Compound 8-1] | 7940 | 631 | 100
O=C1c2ccccc2C(=O)N1CCCn1ccnc(N2CCN(CCOc3ccc(F)cc3)CC2)c1=O [Compound 8-2] | 631 | 100 | 39.8

Other lines, results leading:

IC50 (5HT-Transporter) [nM] | IC50 (hα2A receptor) [nM] | IC50 (hα2C receptor) [nM] | SMILES
> 10000 | 1260 | 1000 | COCCCn1ccnc(N2CCN(CCOc3ccc(F)cc3)CC2)c1=O [Compound 9-1]
2510 | 200 | 251 | O=c1c(N2CCN(CCOc3ccc(F)cc3)CC2)nccn1CCOc1ccccc1 [Compound 9-2]
3980 | 501 | 251 | O=c1c(N2CCN(CCOc3ccc(F)cc3)CC2)nccn1CCOCc1ccccc1 [Compound 9-3]
> 10000 | 100 | 200 | O=c1c(N2CCN(CCOc3ccc(F)cc3)CC2)nccn1Cc1ccccc1 [Compound 11-1]
2000 | 251 | 631 | O=c1c(N2CCN(CCOc3ccc(F)cc3)CC2)nccn1CCCc1ccccc1 [Compound 11-2]
7940 | 251 | 316 | O=c1c(N2CCN(CCOc3ccc(F)cc3)CC2)nccn1CC(c1ccccc1)c1ccccc1 [Compound 11-3]
1580 | 251 | 200 | O=c1c(N2CCN(CCOc3ccc(F)cc3)CC2)nccn1C/C=C/c1ccccc1 [Compound 11-4]
3980 | 158 | 158 | O=C(Cn1ccnc(N2CCN(CCOc3ccc(F)cc3)CC2)c1=O)c1ccccc1 [Compound 11-5]
1000 | 316 | 251 | O=c1c(N2CCN(CCOc3ccc(F)cc3)CC2)nccn1Cc1ccc(-c2ccccc2)cc1 [Compound 11-6]
2000 | 126 | 126 | O=c1c(N2CCN(CCOc3ccc(F)cc3)CC2)nccn1Cc1ccc2ccccc2c1 [Compound 11-8]
> 10000 | 200 | 251 | O=c1c(N2CCN(CCOc3ccc(F)cc3)CC2)nccn1Cc1ccco1 [Compound 12-1]
6310 | 200 | 79.4 | O=c1c(N2CCN(CCOc3ccc(F)cc3)CC2)nccn1Cc1ccc(Cl)s1 [Compound 12-2]
> 10000 | 251 | 316 | Cc1nc(Cn2ccnc(N3CCN(CCOc4ccc(F)cc4)CC3)c2=O)cs1 [Compound 12-3]
794 | 158 | 158 | COc1ccc(-c2nnc(Cn3ccnc(N4CCN(CCOc5ccc(F)cc5)CC4)c3=O)o2)cc1 [Compound 12-4]
> 10000 | 501 | 251 | O=c1[nH]ccnc1N1CCN(CCOc2ccc(F)cc2)CC1 [Compound 13-1]
> 10000 | 631 | 398 | CCCn1ccnc(N2CCN(CCOc3ccc(F)cc3)CC2)c1=O [Compound 13-2]
7940 | 501 | 251 | O=c1c(N2CCN(CCOc3ccc(F)cc3)CC2)nccn1CC1CCCCC1 [Compound 13-3]
> 10000 | 316 | 200 | CC(C)(C)C(=O)Cn1ccnc(N2CCN(CCOc3ccc(F)cc3)CC2)c1=O [Compound 13-4]
> 10000 | 501 | 501 | C=CCn1ccnc(N2CCN(CCOc3ccc(F)cc3)CC2)c1=O [Compound 13-5]

Source: patent US20090281099A1, “SUBSTITUTED PYRAZINONE DERIVATIVES FOR USE AS A MEDICINE” (priority 2006, published 2009)
